Source: ChEMBL document CHEMBL4411339, “Design, synthesis and antimycobacterial activity of less lipophilic Q203 derivatives containing alkaline fused ring moieties” (Bioorg Med Chem, 2019)
In brackets after ≈: the same amount, converted by molar mass.

How the values were obtained:
[1] = Cytotoxicity against African green monkey Vero cells assessed as reduction in cell viability after 72 hrs by MTT assay; type: cell-based; details: chlorocebus sabaeus
hERG (KCNH2) = hERG (KCNH2) (Homo sapiens, UniProt Q12809); experiment: Inhibition of human ERG at 10 uM relative to control
hERG (KCNH2), sequence (Q12809 whole entry): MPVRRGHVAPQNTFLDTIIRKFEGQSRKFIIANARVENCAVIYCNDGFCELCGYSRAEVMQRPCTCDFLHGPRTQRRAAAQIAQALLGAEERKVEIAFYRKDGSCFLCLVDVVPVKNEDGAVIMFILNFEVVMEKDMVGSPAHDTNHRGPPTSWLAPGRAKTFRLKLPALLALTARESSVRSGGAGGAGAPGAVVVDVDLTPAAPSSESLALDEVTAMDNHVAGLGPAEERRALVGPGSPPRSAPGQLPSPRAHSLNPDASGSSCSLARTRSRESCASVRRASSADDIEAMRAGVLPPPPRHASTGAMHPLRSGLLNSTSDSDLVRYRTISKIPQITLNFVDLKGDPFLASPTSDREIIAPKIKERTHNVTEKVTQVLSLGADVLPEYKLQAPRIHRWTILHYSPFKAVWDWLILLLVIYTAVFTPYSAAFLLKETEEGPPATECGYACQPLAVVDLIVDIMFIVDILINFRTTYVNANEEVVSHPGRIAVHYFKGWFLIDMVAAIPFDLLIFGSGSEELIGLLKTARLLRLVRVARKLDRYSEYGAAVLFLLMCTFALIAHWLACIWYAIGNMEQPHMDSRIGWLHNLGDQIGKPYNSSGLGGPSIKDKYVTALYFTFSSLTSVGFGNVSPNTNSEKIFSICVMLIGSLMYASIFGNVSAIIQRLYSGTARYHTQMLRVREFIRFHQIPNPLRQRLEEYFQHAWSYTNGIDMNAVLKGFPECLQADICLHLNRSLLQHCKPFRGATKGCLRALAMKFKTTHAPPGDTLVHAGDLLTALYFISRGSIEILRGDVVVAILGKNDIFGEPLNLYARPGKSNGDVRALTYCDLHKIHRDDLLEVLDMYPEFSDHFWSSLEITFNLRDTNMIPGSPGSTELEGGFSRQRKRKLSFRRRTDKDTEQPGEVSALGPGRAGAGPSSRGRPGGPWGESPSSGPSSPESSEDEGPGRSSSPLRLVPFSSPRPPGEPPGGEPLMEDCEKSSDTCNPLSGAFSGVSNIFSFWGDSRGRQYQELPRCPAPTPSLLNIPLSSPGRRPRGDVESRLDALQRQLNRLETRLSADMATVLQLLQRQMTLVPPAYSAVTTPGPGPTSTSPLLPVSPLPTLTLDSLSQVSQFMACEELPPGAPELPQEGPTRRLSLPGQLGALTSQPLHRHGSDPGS

[2] = test system: Mycobacterium tuberculosis; experiment: Antimycobacterial activity against Mycobacterium tuberculosis H37Rv ATCC 27294 after 7 days by microplate alamar blue assay; type: functional; details: H37Rv ATCC 27294, 168 h
[3] = AUC (0 to infinity) in specific pathogen free ICR mouse at 25 mg/kg, po administered as single dose by HPLC analysis; type: ADME, organism-based; set-up: dose 25 mg/kg, time infinity, route oral; details: in vivo
[4] = Tmax in specific pathogen free ICR mouse at 25 mg/kg, po administered as single dose by HPLC analysis; type: ADME, organism-based; details: in vivo
[5] = Elimination half life in specific pathogen free ICR mouse at 25 mg/kg, po administered as single dose by HPLC analysis; type: ADME, organism-based; details: in vivo, read-out: beta t1/2 (converted)
[6] = Cmax in specific pathogen free ICR mouse at 25 mg/kg, po administered as single dose by HPLC analysis; type: ADME, organism-based; set-up: dose 25 mg/kg, route oral; details: in vivo
[7] = Acute toxicity in specific pathogen free ICR mouse at 500 mg/kg, po administered as single dose measured up to 7 days; type: organism-based; details: in vivo, 168 h
[8] = Aqueous solubility of the compound in pH 2 0.01M HCl incubated under stirred condition for 12 hrs by UV-HPLC analysis; type: physicochemical

Row | SMILES | CC50 at 72 h [1] | inhibition at 10 µM (hERG (KCNH2)) | MIC [2] | AUC(0-inf) [3] | Tmax [4] | half-life [5] | Cmax [6] | Activity [7] | solubility at 12 h [8]
1 | CCc1nc2cc(Cl)ccn2c1C(=O)NCc1ccc2c(c1)CCN(Cc1ccc(OC)cc1)C2 | 32 mg/L (≈ 65.4 µM) | 64% | < 0.035 µM |  |  |  |  |  | 
2 | CCc1nc2cc(Cl)ccn2c1C(=O)NCc1ccc2c(c1)CCN(CCc1ccc(C(F)(F)F)nc1)C2 |  |  | 0.19 µM (≈ 0.103 µg/mL) |  |  |  |  |  | 
3 | CCc1nc2cc(Cl)ccn2c1C(=O)NCc1ccc2c(c1)CCN(CCc1ccc(C(F)(F)F)cn1)C2 | 25 mg/L (≈ 46.1 µM) |  | < 0.035 µM |  |  |  |  |  | 
4 | CCc1nc2ccc(Cl)cn2c1C(=O)NCc1ccc2c(c1)CCN(Cc1ccc(C(F)(F)F)cn1)C2 | > 64 mg/L | 25% | 0.053 µM (≈ 0.028 µg/mL) | 25.6 µg·h/mL | 0.583 h | 3.2 h | 8.06 µg/mL | Non-Toxic | 
5 | CO[C@H]1/C=C/O[C@@]2(C)Oc3c(C)c(O)c4c(O)c(c(/C=N/N5CCN(C)CC5)c(O)c4c3C2=O)NC(=O)/C(C)=C\C=C\[C@H](C)[C@H](O)[C@@H](C)[C@@H](O)[C@@H](C)[C@H](OC(C)=O)[C@@H]1C [RIFAMPIN] |  |  | 0.12 µM (≈ 0.0988 µg/mL) |  |  |  |  |  | 
6 | CCc1nc2ccc(Cl)cn2c1C(=O)NCc1ccc(N2CCC(c3ccc(OC(F)(F)F)cc3)CC2)cc1 [TELACEBEC] | > 64 mg/L | 50% | < 0.035 µM | 46.6 µg·h/mL | 2.67 h | 18.7 h | 3.77 µg/mL |  | 0.079 mg/mL (≈ 142 µM)
7 | CCc1nc2ccc(Cl)cn2c1C(=O)NCc1ccc2c(c1)CCN(Cc1ccc(C(F)(F)F)cc1)C2 | > 64 mg/L | 50% | 0.13 µM (≈ 0.0685 µg/mL) | 7.8 µg·h/mL | 0.25 h | 4.98 h | 3 µg/mL | Non-Toxic | 
8 | CCc1nc2ccc(Cl)cn2c1C(=O)NCc1ccc2c(c1)CN(Cc1ccc(OC(F)(F)F)cc1)C2 | > 64 mg/L | 50% | 0.051 µM (≈ 0.027 µg/mL) | 3.6 µg·h/mL | 0.417 h | 5.13 h | 1.31 µg/mL | Non-Toxic | 
9 | NNC(=O)c1ccncc1 [ISONIAZID] |  |  | 0.27 µM (≈ 0.037 µg/mL) |  |  |  |  |  | 
10 | CCc1nc2ccc(Cl)cn2c1C(=O)NCc1ccc2c(c1)CCN(CCc1ccc(C(F)(F)F)cn1)C2 | 48 mg/L (≈ 88.6 µM) | 13% | < 0.035 µM | 54.9 µg·h/mL | 0.25 h | 5.39 h | 22.1 µg/mL | Non-Toxic | 2.1 mg/mL (≈ 3870 µM)
11 | CCc1nc2cc(Cl)ccn2c1C(=O)NCc1ccc2c(c1)CCN(Cc1ccc(F)cc1)C2 |  |  | 0.19 µM (≈ 0.0906 µg/mL) |  |  |  |  |  | 
12 | CCc1nc2cc(Cl)ccn2c1C(=O)NCc1ccc2c(c1)CCN(Cc1ccc(C(C)(C)C)cc1)C2 | 14 mg/L (≈ 27.2 µM) |  | 0.12 µM (≈ 0.0618 µg/mL) |  |  |  |  |  | 
13 | CCc1nc2ccc(Cl)cn2c1C(=O)NCc1ccc2c(c1)CCN(Cc1ccc(F)cc1)C2 | > 64 mg/L | 60% | < 0.035 µM |  |  |  |  |  | 
14 | CCc1nc2ccc(Cl)cn2c1C(=O)NCc1ccc2c(c1)CCN(Cc1ccc(C(F)(F)F)nc1)C2 | 7 mg/L (≈ 13.3 µM) |  | 0.097 µM (≈ 0.0512 µg/mL) |  |  |  |  |  | 
15 | CCc1nc2cc(Cl)ccn2c1C(=O)NCc1ccc2c(c1)CCN(Cc1ccc(C(F)(F)F)cc1)C2 |  |  | 0.91 µM (≈ 0.48 µg/mL) |  |  |  |  |  | 
16 | CCc1nc2cc(Cl)ccn2c1C(=O)NCc1ccc2c(c1)CCN(Cc1ccc([N+](=O)[O-])o1)C2 | > 64 mg/L | 71% | < 0.035 µM |  |  |  |  |  | 
17 | CCc1nc2ccc(Cl)cn2c1C(=O)NCc1ccc2c(c1)CCN(Cc1ccc([N+](=O)[O-])o1)C2 |  |  | 0.25 µM (≈ 0.123 µg/mL) |  |  |  |  |  | 
18 | CCc1nc2cc(Cl)ccn2c1C(=O)NCc1ccc2c(c1)CCN(Cc1ccc(Br)cc1)C2 |  |  | 0.31 µM (≈ 0.167 µg/mL) |  |  |  |  |  | 
19 | CCc1nc2ccc(Cl)cn2c1C(=O)NCc1ccc2c(c1)CCN(Cc1ccc(C)cc1)C2 | 51 mg/L (≈ 108 µM) | 54% | < 0.035 µM |  |  |  |  |  | 
20 | CCc1nc2ccc(Cl)cn2c1C(=O)NCc1ccc2c(c1)CCN(Cc1ccc(Br)cc1)C2 | 30 mg/L (≈ 55.8 µM) |  | < 0.035 µM |  |  |  |  |  | 
21 | O=c1nc(N2CCN(CC3CCCCC3)CC2)sc2c([N+](=O)[O-])cc(C(F)(F)F)cc12 [MACOZINONE] | 31 mg/L (≈ 67.9 µM) | 41% | < 0.035 µM | 1.59 µg·h/mL |  |  |  |  | 1.13 mg/mL (≈ 2480 µM)
22 | CCc1nc2ccc(Cl)cn2c1C(=O)NCc1ccc2c(c1)CCN(CCc1ccc(C(F)(F)F)nc1)C2 | > 64 mg/L | 44% | 0.047 µM (≈ 0.0255 µg/mL) | 1.48 µg·h/mL | 0.25 h | 1.79 h | 1.63 µg/mL | Non-Toxic | 
23 | CCc1nc2cc(Cl)ccn2c1C(=O)NCc1ccc2c(c1)CCN(Cc1cc(F)cc(F)c1)C2 | 48 mg/L (≈ 97 µM) | 48% | < 0.035 µM | 24.1 µg·h/mL | 0.667 h | 9.06 h | 5.38 µg/mL | Non-Toxic | 
24 | CCc1nc2ccc(Cl)cn2c1C(=O)NCc1ccc2c(c1)CCN(Cc1cc(F)cc(F)c1)C2 | 14 mg/L (≈ 28.3 µM) |  | < 0.035 µM |  |  |  |  |  | 
25 | CCc1nc2ccc(Cl)cn2c1C(=O)NCc1ccc2c(c1)CCN(Cc1ccc(OC)cc1)C2 | 2 mg/L (≈ 4.09 µM) |  | < 0.035 µM |  |  |  |  |  | 
26 | CCc1nc2ccc(Cl)cn2c1C(=O)NCc1ccc2c(c1)CCN(Cc1ccc(C(C)(C)C)cc1)C2 | 37 mg/L (≈ 71.8 µM) | 31% | < 0.035 µM | 4.21 µg·h/mL | 0.5 h | 9.35 h | 1.08 µg/mL | Non-Toxic | 
27 | CCc1nc2ccc(Cl)cn2c1C(=O)NCc1ccc2c(c1)CN(C(C)c1ccc(OC(F)(F)F)cc1)C2 (stereo not given) | > 64 mg/L | 50% | < 0.035 µM | 7.61 µg·h/mL | 0.333 h | 9.08 h | 3.99 µg/mL | Non-Toxic | 
28 | CCc1nc2cc(Cl)ccn2c1C(=O)NCc1ccc2c(c1)CCN(Cc1ccc(C)cc1)C2 |  |  | 0.27 µM (≈ 0.128 µg/mL) |  |  |  |  |  | 
